# In patent US20110146678A1, “PROCESS FOR IMPROVING CRYSTALLINITY” (priority 2008, published 2011):
# What was measured:
# Format in all cases: physicochemical
# [1] = Particle size by Sympatec HELOS laser diffraction / optical microscopy; settings: for D(10) / D(50) / D(90): Sympatec HELOS laser diffraction
# From the text: The particle size can be measured by laser diffraction techniques: Light from a laser is shone into a cloud of particles, which are suspended in a transparent gas such as air. The particles scatter the light; smaller particles scattering the light at larger angles than bigger particles. The scattered light can be measured by a series of photodetectors placed at different angles. This is known as the diffraction pattern for the sample. The diffraction pattern can be used to measure the size of the particles using well documented light scattering theory. The particles are assumed to be spherical but few particles are actually spherical. The particle diameters are calculated from the measured volume of the particle, but assume a sphere of equivalent volume.
# Budesonide (5 g) was dissolved in 100 mL of dichloromethane. The samples of budesonide powder collected in the ultrasonic chamber were produced using a Büchi-290 laboratory-scale spray dryer […], Büchi, Switzerland). The solution was atomized using nitrogen at 7 bar flowing at approximately at 10 Lpm (Litre/minute). The aspirator was set at 100% and flow rate of solution was set to […]. The gas temperature was set to 120° C. Budesonide particles were collected the ultrasonic chamber connected to the end of high performance cyclone separator. In order to apply ultrasound to the spray dried particles, the collection ultrasonic chamber was filled with heptane thermoregulated at 25° C. and was fitted with an ultrasonic probe resonating at 20 kHz. Ultrasound at 20 W power was applied between 30 minutes and 1 hour. The resulting particle slurry was spray dried and particles characterized by optical microscopy and DSC (Differential Scanning calorimetry). The size of the particles were typically in the range of 1-7 μm.
# The D(10), D(50), D(90) for two representative samples were 1.21, 3.03, 4.63 μm and 1.05, 2.99, 3.76 μm respectively as determined by Sympatec HELOS laser diffraction. […]
# [2] = Cohesive-adhesive balance (CAB) by AFM colloid probe; settings: for adhesive FP-Lactose interactions, times greater than cohesive FP-FP interactions (CAB analysis): equivalent contact geometry, 20° C., 45% RH; for adhesiveness to lactose (FIG. 29): comparison between batches
# From the text: The cohesive-adhesive balance (CAB) approach of the AFM colloid probe technique is a development that enables direct quantification of the cohesive and adhesive nature—“the force balance” of an API within a formulation. It is a commercially available screening tool in determining the cohesive/adhesive force interactions between potential formulation components using milligrams or less of material.
# The CAB approach measures the forces of interaction between API particles, mounted as colloid AFM probes, and well-defined crystalline surfaces of the API and carrier substrates. A CAB plot generated from the interaction of a number of probes allows a characteristic measurement of the cohesive nature of the API, in relation to its adhesive propensity with an excipient material to be quantified. The development of the CAB approach has overcome a number of the limitations associated with conventional AFM colloid probe methodologies, including issues regarding instrumental validation and the need to determine the true area of contact of the interacting surfaces. […] Drug-carrier combinations with a higher CAB ratio, such as >1, results in a higher fine particle fraction (FPF) upon aerosolisation, despite potential difference between the carriers in terms of size, shape, roughness and flowability. Drug-carrier combinations with a lower CAB ratio, such as, <1 result in greater […] of the active particle to the carrier, therefore the active particle is more likely to remain attached to the carrier. This means that in an inhaled composition, the active particle which remains attached to the carrier particle may not reach the lung and may be deposited in the throat or on the tongue. Preferably, the particles produced according to the present invention have much lower cohesiveness than particles prepared by other methods including micronization and milling. With respect to a measure of cohesiveness, since all substrates will be different with respect to their cohesive and adhesive properties, the CAB ratio is a dimensionless value which is a more useful measure for comparison. Preferably, the particles produced according to the present invention have CAB ratios with the carrier particles of 0.8-1.3, more preferably 0.9-1.2, more preferably, 1.0- 1.1. This is a careful balance between the cohesion of the drug with itself and the adhesion of the drug with the carrier.
# The cohesive-adhesive balance (CAB) of micronized Fluticasone Propionate (FP) and batches of FP engineered by the method of the current invention (samples 2 and 3) and by a different method exemplified in WO 2008/114052 A1 (sample 4), as described in Example 1, were determined with respect to crystalline substrates of FP and lactose monohydrate. The CAB force balance of the different batches with respect to the crystalline substrates was determined as follows:
# Particles (n=3) of all batches of FP were attached onto standard V-shaped tipless cantilevers (DNP-020, DI, CA, USA) using an epoxy resin glue (Araldite, Cambridge, UK).
# Smooth crystals of lactose were produced on cooling of a heated saturated droplet sandwiched between cover slips. Smooth drug crystals were produced using sitting-drop anti-solvent crystallisation, in which the active was dissolved in acetone and the anti-solvent employed was water.
# Individual force curves (n=1024) were conducted over a 10 μm×10 μm area at a scan rate of 4 Hz and a compressive load of 40 nN. Environmental conditions were maintained at a constant temperature of 20° C. (±1.5 ° C.) and relative humidity 45±3%.
# [3] = Aerosolisation efficiency of binary DPI formulations (0.4% w/w FP in lactose), NGI via Rotahaler; settings: binary DPI, Rotahaler 60 Lpm
# Experimental: The aerosolization efficiency of samples 2, 3 and 4 of engineered FP were evaluated using binary formulations containing 0.4% w/w FP.
# Each binary formulation contained 0.016 g FP and 3.984 g lactose (ML001, DMV-Fonterra, Vehgel, Netherlands) and was prepared by geometric mixing. Following this, the blend was subsequently prepared using a Turbula T2F (Willy A Bachofen A G, Basel, Switzerland) at 46 rpm for 45 minutes.
# Following content uniformity testing, 12.5±1 mg of each blend was loaded into size 3 hydroxypropylmethyl cellulose capsules (HPMC, Shionogi Qualicaps S A, Basingstoke, UK). The capsules were stored at 44% RH for 24 h prior to in vitro performance testing.
# Testing was performed using a Next Generation Impactor (NGI) with pre-separator, which was connected to a vacuum pump (GE Motors). Prior to testing, the pre-separator was filled with 15 ml of mobile phase and the cups of the NGI cups were coated with 1% v/v silicone oil in hexane to eliminate particle bounce.
# For each experiment, four individual capsules of the same formulation were discharged into the NGI at 60 Lpm for 4 s via a Rotahaler (GSK, Ware, UK) DPI device. Additionally, blisters from a Flixotide Diskus (GSK, Ware, UK) were emptied and loaded into size 3 HPMS capsules and discharged into a NGI at 60 Lpm1 for 4 s via a Rotahaler. Following aerosolization, the NGI apparatus was dismantled and the inhaler, capsules and each part of the NGI was washed down into known volumes of HPLC mobile phase.
# The mass of drug deposited on each part of the NGI was determined by HPLC. This protocol was repeated three times for each blend, following which, the mass median aerodynamic diameter (MMAD), geometric standard deviation (GSD), fine particle dose (FPD) and fine particle fraction of the emitted dose (FPFED) were determined. The FPD represented the mass of drug that was collected on stages 3-8 of the NGI.
D(10) [1] [μm],D(50) [1] [μm],D(90) [1] [μm],"size of the particles, typical range ([1]; after ultrasound treatment and spray drying of slurry)",adhesion values (FP-lactose interaction) ([2]; AFM force measurement),"adhesive FP-Lactose interactions, times greater than cohesive FP-FP interactions (CAB analysis) ([2]; listed as sample 2 FP)","adhesive FP-Lactose interactions, times greater than cohesive FP-FP interactions (CAB analysis) ([2]; listed as sample 3 FP)",adhesiveness to lactose (FIG. 29) [2],"adhesive FP-Lactose interactions, times greater than cohesive FP-FP interactions (CAB analysis) ([2]; listed as sample 4 FP)",adhesion values ([2]; AFM force measurement) [nN],"adhesive FP-Lactose interactions, times greater than cohesive FP-FP interactions (CAB analysis) [2]",SMILES,percentage fine particle fraction (% FPF) compared with micronized FP ([3]; listed as Samples 2),percentage fine particle fraction (% FPF) compared with micronized FP [3]
1.35,3.25,5.63,1-6 μm,128-169 nN,1.17,,,,,,"CCC(=O)O[C@]1(C(=O)SCF)[C@H](C)C[C@H]2[C@@H]3C[C@H](F)C4=CC(=O)C=C[C@]4(C)[C@@]3(F)[C@@H](O)C[C@@]21C [Sample 2, Fluticasone propionate]",significantly greater than that of micronized FP,
0.99,2.55,4.97,,35-89 nN,,1.16,,,,,"CCC(=O)O[C@]1(C(=O)SCF)[C@H](C)C[C@H]2[C@@H]3C[C@H](F)C4=CC(=O)C=C[C@]4(C)[C@@]3(F)[C@@H](O)C[C@@]21C [Sample 3, Fluticasone propionate]",,significantly greater than that of micronized FP
1.14,2.67,5.11,,400-800 nN,,,least adhesive to lactose and SX,almost equal,,,"CCC(=O)O[C@]1(C(=O)SCF)[C@H](C)C[C@H]2[C@@H]3C[C@H](F)C4=CC(=O)C=C[C@]4(C)[C@@]3(F)[C@@H](O)C[C@@]21C [Sample 4, fluticasone propionate, reference compound]",,significantly lower % FPF than micronized FP
,,,,,,,significantly more adhesive to lactose,,169 to 249,1.36,"CCC(=O)O[C@]1(C(=O)SCF)[C@H](C)C[C@H]2[C@@H]3C[C@H](F)C4=CC(=O)C=C[C@]4(C)[C@@]3(F)[C@@H](O)C[C@@]21C [micronized FP, Fluticasone Propionate]",,
